Reference: ChEMBL document CHEMBL1667786, “Synthesis and biological evaluation of indole-chalcone derivatives as β-amyloid imaging probe” (Bioorg Med Chem Lett, 2011)
Values belong to the compound of their own block, whether it stands above or below them. Calls of active or inactive are those of the source. No cut-off for these calls is given here.

Tests used:
[1] = Displacement of [125I]IMPY from amyloid beta 1 to 42 after 2 hrs
Mus musculus [2] = organism: Mus musculus; assay: Binding affinity to amyloid beta in APP/PS1 transgenic C57 mouse cortex at 1 uM after 10 mins by autoradiography; conditions: tested as the 125I-labelled form
Mus musculus [3] = organism: Mus musculus; assay: Binding affinity to amyloid beta in APP/PS1 transgenic C57 mouse brain at 1 uM after 10 mins by Thioflavin-S fluorescence assay; assay type: tissue-based; conditions: tested as the 125I-labelled form
Blood [4] = assay: Biodistribution in ddY mouse blood assessed per gram of tissue at 1 uCi, iv after 120 mins; assay type: ADME, organism-based; conditions: in vivo, 2 h
Spleen [5] = assay: Biodistribution in ddY mouse spleen assessed per gram of tissue at 1 uCi, iv after 15 mins; assay type: ADME, organism-based; conditions: in vivo, 0.25 h
Intestine [6] = assay: Biodistribution in ddY mouse intestine assessed per gram of tissue at 1 uCi, iv after 15 mins; assay type: ADME, organism-based; conditions: in vivo, 0.25 h
Intestine [7] = assay: Biodistribution in ddY mouse intestine assessed per gram of tissue at 1 uCi, iv after 30 mins; assay type: ADME, organism-based; conditions: in vivo, 0.5 h
Heart [8] = assay: Biodistribution in ddY mouse heart assessed per gram of tissue at 1 uCi, iv after 2 mins; assay type: ADME, organism-based; conditions: in vivo
Intestine [9] = assay: Biodistribution in ddY mouse intestine assessed per gram of tissue at 1 uCi, iv after 120 mins; assay type: ADME, organism-based; conditions: in vivo, 2 h
Liver [10] = assay: Biodistribution in ddY mouse liver assessed per gram of tissue at 1 uCi, iv after 30 mins; assay type: ADME, organism-based; conditions: in vivo, 0.5 h
Liver [11] = assay: Biodistribution in ddY mouse liver assessed per gram of tissue at 1 uCi, iv after 60 mins; assay type: ADME, organism-based; conditions: in vivo, 1 h
Spleen [12] = assay: Biodistribution in ddY mouse spleen assessed per gram of tissue at 1 uCi, iv after 60 mins; assay type: ADME, organism-based; conditions: in vivo, 1 h
Kidney [13] = assay: Biodistribution in ddY mouse kidney assessed per gram of tissue at 1 uCi, iv after 15 mins; assay type: ADME, organism-based; conditions: in vivo, 0.25 h
Stomach [14] = assay: Biodistribution in ddY mouse stomach assessed per gorgan at 1 uCi, iv after 15 mins; assay type: ADME, organism-based; conditions: in vivo, 0.25 h
Liver [15] = assay: Biodistribution in ddY mouse liver assessed per gram of tissue at 1 uCi, iv after 120 mins; assay type: ADME, organism-based; conditions: in vivo, 2 h
Heart [16] = assay: Biodistribution in ddY mouse heart assessed per gram of tissue at 1 uCi, iv after 60 mins; assay type: ADME, organism-based; conditions: in vivo, 1 h
Liver [17] = assay: Biodistribution in ddY mouse liver assessed per gram of tissue at 1 uCi, iv after 2 mins; assay type: ADME, organism-based; conditions: in vivo
Blood [18] = assay: Biodistribution in ddY mouse blood assessed per gram of tissue at 1 uCi, iv after 15 mins; assay type: ADME, organism-based; conditions: in vivo, 0.25 h
Stomach [19] = assay: Biodistribution in ddY mouse stomach assessed per gorgan at 1 uCi, iv after 120 mins; assay type: ADME, organism-based; conditions: in vivo, 2 h
Lung [20] = assay: Biodistribution in ddY mouse lung assessed per gram of tissue at 1 uCi, iv after 30 mins; assay type: ADME, organism-based; conditions: in vivo, 0.5 h
Lung [21] = assay: Biodistribution in ddY mouse lung assessed per gram of tissue at 1 uCi, iv after 15 mins; assay type: ADME, organism-based; conditions: in vivo, 0.25 h
Stomach [22] = assay: Biodistribution in ddY mouse stomach assessed per gorgan at 1 uCi, iv after 30 mins; assay type: ADME, organism-based; conditions: in vivo, 0.5 h
Kidney [23] = assay: Biodistribution in ddY mouse kidney assessed per gram of tissue at 1 uCi, iv after 120 mins; assay type: ADME, organism-based; conditions: in vivo, 2 h
Intestine [24] = assay: Biodistribution in ddY mouse intestine assessed per gram of tissue at 1 uCi, iv after 60 mins; assay type: ADME, organism-based; conditions: in vivo, 1 h
Heart [25] = assay: Biodistribution in ddY mouse heart assessed per gram of tissue at 1 uCi, iv after 30 mins; assay type: ADME, organism-based; conditions: in vivo, 0.5 h
Brain [26] = assay: Biodistribution in ddY mouse brain assessed per gram of tissue at 1 uCi, iv after 60 mins; assay type: ADME, organism-based; conditions: in vivo, 1 h
Brain [27] = assay: Biodistribution in ddY mouse brain assessed per gram of tissue at 1 uCi, iv after 15 mins; assay type: ADME, organism-based; conditions: in vivo, 0.25 h
Stomach [28] = assay: Biodistribution in ddY mouse stomach assessed per gorgan at 1 uCi, iv after 2 mins; assay type: ADME, organism-based; conditions: in vivo
Stomach [29] = assay: Biodistribution in ddY mouse stomach assessed per gorgan at 1 uCi, iv after 60 mins; assay type: ADME, organism-based; conditions: in vivo, 1 h
Lung [30] = assay: Biodistribution in ddY mouse lung assessed per gram of tissue at 1 uCi, iv after 120 mins; assay type: ADME, organism-based; conditions: in vivo, 2 h
Spleen [31] = assay: Biodistribution in ddY mouse spleen assessed per gram of tissue at 1 uCi, iv after 2 mins; assay type: ADME, organism-based; conditions: in vivo
Brain [32] = assay: Biodistribution in ddY mouse brain assessed per gram of tissue at 1 uCi, iv after 120 mins; assay type: ADME, organism-based; conditions: in vivo, 2 h
Liver [33] = assay: Biodistribution in ddY mouse liver assessed per gram of tissue at 1 uCi, iv after 15 mins; assay type: ADME, organism-based; conditions: in vivo, 0.25 h
Lung [34] = assay: Biodistribution in ddY mouse lung assessed per gram of tissue at 1 uCi, iv after 2 mins; assay type: ADME, organism-based; conditions: in vivo
Blood [35] = assay: Biodistribution in ddY mouse blood assessed per gram of tissue at 1 uCi, iv after 60 mins; assay type: ADME, organism-based; conditions: in vivo, 1 h
Heart [36] = assay: Biodistribution in ddY mouse heart assessed per gram of tissue at 1 uCi, iv after 15 mins; assay type: ADME, organism-based; conditions: in vivo, 0.25 h
Spleen [37] = assay: Biodistribution in ddY mouse spleen assessed per gram of tissue at 1 uCi, iv after 120 mins; assay type: ADME, organism-based; conditions: in vivo, 2 h
Lung [38] = assay: Biodistribution in ddY mouse lung assessed per gram of tissue at 1 uCi, iv after 60 mins; assay type: ADME, organism-based; conditions: in vivo, 1 h
Brain [39] = assay: Biodistribution in ddY mouse brain assessed per gram of tissue at 1 uCi, iv after 2 mins; assay type: ADME, organism-based; conditions: in vivo
Blood [40] = assay: Biodistribution in ddY mouse blood assessed per gram of tissue at 1 uCi, iv after 2 mins; assay type: ADME, organism-based; conditions: in vivo
Spleen [41] = assay: Biodistribution in ddY mouse spleen assessed per gram of tissue at 1 uCi, iv after 30 mins; assay type: ADME, organism-based; conditions: in vivo, 0.5 h
Kidney [42] = assay: Biodistribution in ddY mouse kidney assessed per gram of tissue at 1 uCi, iv after 60 mins; assay type: ADME, organism-based; conditions: in vivo, 1 h
Intestine [43] = assay: Biodistribution in ddY mouse intestine assessed per gram of tissue at 1 uCi, iv after 2 mins; assay type: ADME, organism-based; conditions: in vivo
Brain [44] = assay: Biodistribution in ddY mouse brain assessed per gram of tissue at 1 uCi, iv after 30 mins; assay type: ADME, organism-based; conditions: in vivo, 0.5 h
Kidney [45] = assay: Biodistribution in ddY mouse kidney assessed per gram of tissue at 1 uCi, iv after 2 mins; assay type: ADME, organism-based; conditions: in vivo
Heart [46] = assay: Biodistribution in ddY mouse heart assessed per gram of tissue at 1 uCi, iv after 120 mins; assay type: ADME, organism-based; conditions: in vivo, 2 h
Blood [47] = assay: Biodistribution in ddY mouse blood assessed per gram of tissue at 1 uCi, iv after 30 mins; assay type: ADME, organism-based; conditions: in vivo, 0.5 h
Kidney [48] = assay: Biodistribution in ddY mouse kidney assessed per gram of tissue at 1 uCi, iv after 30 mins; assay type: ADME, organism-based; conditions: in vivo, 0.5 h

Ki [1]: 51.1 nM
SMILES: CNc1ccc(C(=O)/C=C/c2ccc3[nH]ccc3c2)cc1

Activity (Mus musculus [2]): Active
Ki [1]: 8.22 nM
Activity (Mus musculus [3]): Active
SMILES: O=C(/C=C/c1ccc2[nH]ccc2c1)c1ccc(I)cc1

Ki [1]: > 1010 nM
SMILES: Nc1ccc(C(=O)/C=C/c2ccc3[nH]ccc3c2)cc1

Ki [1]: > 360 nM
SMILES: O=C(/C=C/c1ccc2[nH]ccc2c1)c1ccc(O)cc1

Activity [1]: Dose-dependent effect
Ki [1]: 1.97 nM
SMILES: CN(C)c1ccc(/C=C/C(=O)c2ccc(I)cc2)cc1

Ki [1]: 5.17 nM
SMILES: CN(C)c1ccc(C(=O)/C=C/c2ccc3[nH]ccc3c2)cc1

Drug uptake (Blood [4]): 3.72 %ID
Drug uptake (Spleen [5]): 2.96 %ID
Drug uptake (Intestine [6]): 2.01 %ID
Drug uptake (Intestine [7]): 2.32 %ID
Drug uptake (Heart [8]): 3.27 %ID
Drug uptake (Intestine [9]): 2.13 %ID
Drug uptake (Liver [10]): 1.91 %ID
Drug uptake (Liver [11]): 1.48 %ID
Drug uptake (Spleen [12]): 2.27 %ID
Drug uptake (Kidney [13]): 4.03 %ID
Drug uptake (Stomach [14]): 1.07 %ID
Drug uptake (Liver [15]): 1.43 %ID
Drug uptake (Heart [16]): 1.61 %ID
Drug uptake (Liver [17]): 2.69 %ID
Drug uptake (Blood [18]): 5.7 %ID
Drug uptake (Stomach [19]): 1.19 %ID
Drug uptake (Lung [20]): 4.2 %ID
Drug uptake (Lung [21]): 4.86 %ID
Drug uptake (Stomach [22]): 0.85 %ID
Drug uptake (Kidney [23]): 2.78 %ID
Drug uptake (Intestine [24]): 1.72 %ID
Drug uptake (Heart [25]): 1.72 %ID
Drug uptake (Brain [26]): 0.21 %ID
Drug uptake (Brain [27]): 0.29 %ID
Drug uptake (Stomach [28]): 2.01 %ID
Drug uptake (Stomach [29]): 0.96 %ID
Drug uptake (Lung [30]): 3.19 %ID
Drug uptake (Spleen [31]): 3.02 %ID
Drug uptake (Brain [32]): 0.13 %ID
Drug uptake (Liver [33]): 2.21 %ID
Drug uptake (Lung [34]): 7.33 %ID
Drug uptake (Blood [35]): 4.15 %ID
Drug uptake (Heart [36]): 2.27 %ID
Drug uptake (Spleen [37]): 1.89 %ID
Drug uptake (Lung [38]): 3.4 %ID
Drug uptake (Brain [39]): 0.41 %ID
Drug uptake (Blood [40]): 8.85 %ID
Drug uptake (Spleen [41]): 2.4 %ID
Drug uptake (Kidney [42]): 3.11 %ID
Drug uptake (Intestine [43]): 1.36 %ID
Drug uptake (Brain [44]): 0.2 %ID
Drug uptake (Kidney [45]): 7.3 %ID
Drug uptake (Heart [46]): 1.33 %ID
Drug uptake (Blood [47]): 4.79 %ID
Drug uptake (Kidney [48]): 3.26 %ID
SMILES: O=C(/C=C/c1ccc2[nH]ccc2c1)c1ccc([125I])cc1

Ki [1]: 8.96 nM
SMILES: O=C(/C=C/c1ccc2[nH]ccc2c1)c1ccc(Br)cc1

Ki [1]: 4.46 nM
SMILES: COc1ccc2cc(C(=O)/C=C/c3ccc4[nH]ccc4c3)ccc2c1

Ki [1]: 8.43 nM
SMILES: O=C(/C=C/c1ccc2[nH]ccc2c1)c1ccc(Cl)cc1

Ki [1]: 35.1 nM
SMILES: O=C(/C=C/c1ccc2[nH]ccc2c1)c1ccc(F)cc1

Ki [1]: 8.52 nM
SMILES: COc1ccc(C(=O)/C=C/c2ccc3[nH]ccc3c2)cc1
